We go through 27 compounds from patent US5232922A, “Imidazole compounds, processes for their preparation, pharmaceuticals based on these compounds and some intermediates” (priority 1990, dated 1993).

Structures can show the parent of a compound that is named as a salt. Where two headings read alike, the source gives them in different places. Some results are limits rather than exact numbers.

Data set [1] has as its system skeletal muscle of the rat (chronic ischemic). The data set is described as follows: Effect on the contractility of the skeletal muscle after chronic ischemia (tiring index). The following applies: for TI of ischemic treated muscle: tiring index = maximum contractility / residual force after 5 min stimulation; for change in vivo at 6 mg/kg: Rattus norvegicus, po, 168 h, read-out: Percentage change (TI of ischemic treated muscle vs TI of normal non-treated muscle). The data set is classed as in vivo, rat (male Wistar). From the text:
1) Effect on the Contractility of the Skeletal Muscle After Chronic Ischemia
In recent years, a marked change has taken place in ideas about the pathophysiology of chronic peripheral arterial occlusive disease as scientific interest has to an increasing extent shifted from the macrocirculation to the microcirculation. Disturbances in the microcirculation therefore manifest themselves in an undersupply of substrates with tissue ischemia resulting therefrom which, in turn, leads to an impairment in the function of the extremity concerned. The logical consequence of this is that the target organ skeletal muscle comes more and more into the forefront. […] The clinical activity is in fact also consistently determined in humans with the aid of the painless walking distance on the moving walkway.
Male Wistar rats having a body weight of 380 to 410 g were used as experimental animals. Under hexobarbital anesthesia (®Evipan--sodium, 200 mg/kg BW (=body weight) i.p.), a unilateral ligature of the right femoral artery was applied to the animals in the groin. After sprinkling penicillin sulfonamide powder for antibiotic wound care, the small operation wound was closed and the animals were continuously observed until they were completely awake. One week later, the administration of substance began by oral administration using a stomach tube (6 mg/kg BW, carboxymethylcellulose-sodium suspension) and was continued for 7 days (single administration per day, about 7h30 to 8h30). The contractility was measured 24 h after the last administration of substance in order to exclude acute effects, to be precise by the following experimental protocol:
Superfusion with physiological saline solution (37° C.) was used to avoid drying out and cooling. The mean arterial blood pressure was recorded continuously via Statham (=blood pressure measuring device) by means of a cannulated caroted artery to control the physiological status of the animals during the experiment. All animals breathed spontaneously by means of an inserted tracheal tube.
After these preparations, the muscle was made to contract (Stimulator I, Hugo Sachs, Federal Republic of Germany) by direct electrical stimulation (2.5 mA, 2 Hz). The absolute contractility in grams at various times of stimulation was used as the measured parameter. […] If the maximum contractility at the start of stimulation is now divided by the residual force remaining after 5 minutes' tiring stimulation, a "tiring index TI" for the muscle concerned can be calculated; the ability to tire here is larger the larger TI is numerically.
4 to 6 individual experiments were carried out for each test preparation.

For data set [2], the system named is laser-induced thrombosis in mesenterial arterioles. As to the kind of experiment: Inhibition of laser-induced thrombosis in mesenterial arterioles of the rat. It is filed as in vivo, rat (female Sprague-Dawley). The following applies: for inhibition in vivo at 20 mg/kg / inhibition in vivo at 10 mg/kg: Rattus norvegicus, po, read-out: Percentage change vs control (inhibition of laser-induced thrombosis); for inhibition in vivo at 10 mg/kg: 10 mg/kg p.o.

The nature of data set [3]: Acute toxicity (LD50 range). To be noted: mouse, in vivo, iv, single administration, NMRI mice, 7 days. The method, then:
The determination of the LD50 ranges was carried out in standard fashion by means of the mortality occurring in the course of 7 days in NMRI mice after single intravenous (i.v.) or intraperitoneal (i.p.) administration (NMRI=NIH Medical Research Institute).

[4] abbreviates: 6 mg/kg p.o. over 7 days, n = 4-6, smaller value = more effective.
[5] abbreviates: 6 mg/kg p.o. over 7 days, n = 4-6.

Broadly, the LD50 is the dose at which mortality reaches 50%. Read a high LD50 as a less toxic substance.

In the case of “1-[3-(1-methyl-5-imidazolesulfonyl)-aminopropyl]-2-pyrrolidinone [Example 43]”, the “Percentage change (TI of ischemic treated muscle vs TI of normal non-treated muscle)” value in data set [1] (setting [4]) is “+29.4%”. For the same compound, the “TI of ischemic treated muscle” value in data set [1] (setting [5]) is given as 2.29. Moreover, in data set [2] (20 mg/kg p.o.), the “Percentage change vs control (inhibition of laser-induced thrombosis)” value was 15%.

Turning to `Cn1cnc(S(=O)(=O)O)c1` [Example 3, 1-Methyl-4-imidazolesulfonic acid], in data set [1] (setting [5]), the “TI of ischemic treated muscle” value stood at 2.26. The change in vivo at 6 mg/kg in data set [1] (setting [4]) is 7.1%. In addition, in data set [2] (20 mg/kg p.o.), the inhibition in vivo at 20 mg/kg worked out at 23%.

As for `Cn1cnc(S(=O)(=O)NCCN2CCOCC2)c1` [Example 9, N-(2-morpholinoethyl)-1-methyl-4-imidazolesulfonamide], the “TI of ischemic treated muscle” value in data set [1] (setting [5]) is listed as 2.47. Besides, in data set [1] (setting [4]), the change in vivo at 6 mg/kg was 10.3%.

With `Cl.Cn1cnc(S(=O)(=O)NCCCCCN2CCOCC2)c1` [Example 11, N-(5-morpholinopentyl)-1-methyl-4-imidazolesulfonamide hydrochloride], the “TI of ischemic treated muscle” value in data set [1] (setting [5]) was 2.52. Further, the change in vivo at 6 mg/kg in data set [1] (setting [4]) is 22.9%.

As for `CC(CNS(=O)(=O)c1cn(C)cn1)CN1CCOCC1.Cl` (stereo not drawn) [Example 12, N-(3-morpholino-2-methyl-1-propyl)-1-methyl-4-imidazolesulfonamide hydrochloride], the inhibition in vivo at 20 mg/kg in data set [2] (20 mg/kg p.o.) came out at 24%. Also, in data set [3], the LD50 at 168 h was > 100 mg/kg.

In the case of `Cl.Cn1cnc(S(=O)(=O)NCCCN2CCSCC2)c1` [Example 13, N-(3-thiomorpholinopropyl)-1-methyl-4-imidazolesulfonamide hydrochloride], the “TI of ischemic treated muscle” value in data set [1] (setting [5]) was 2.95. The change in vivo at 6 mg/kg in data set [1] (setting [4]) was -10.1%. In addition, the inhibition in vivo at 20 mg/kg in data set [2] (20 mg/kg p.o.) was found to be 14%.

On to `CCCCN(CCCN1CCOCC1)S(=O)(=O)c1cn(C)cn1.Cl` [Example 15, N-butyl-N-(3-morpholino-1-propyl)-1-methyl-4-imidazolesulfonamide hydrochloride], for which the “TI of ischemic treated muscle” value in data set [1] (setting [5]) came out at 1.96. Moreover, the change in vivo at 6 mg/kg in data set [1] (setting [4]) turned out to be 10.9%.

Turning to `CC1CCCCN1CCCNS(=O)(=O)c1cn(C)cn1.Cl` (stereo not drawn) [Example 17, N-[3-(2-methylpiperidino)-propyl]-1-methyl-4-imidazolesulfonamide hydrochloride], in data set [1] (setting [5]), the “TI of ischemic treated muscle” value was 2.04. For the same compound, in data set [1] (setting [4]), the change in vivo at 6 mg/kg was -14.3%.

Consider `Cn1cnc(S(=O)(=O)NCCCCN2CCC3(CC2)OCCO3)c1` [Example 19, hydrochloride], for which the “TI of ischemic treated muscle” value in data set [1] (setting [5]) worked out at 2.20. In data set [1], the change in vivo at 6 mg/kg was determined as 11.1%.

Take `Cl.Cn1cnc(S(=O)(=O)NCCN2CCCC2)c1` [Example 20, N-(2-pyrrolidinoethyl)-1-methyl-4-imidazolesulfonamide hydrochloride]: the “TI of ischemic treated muscle” value in data set [1] (setting [5]) came out at 2.56. Also, in data set [1] (setting [4]), the change in vivo at 6 mg/kg turned out to be 23.1%.

Consider `CN1CCCC1CCNS(=O)(=O)c1cn(C)cn1.Cl` (stereo not drawn) [Example 21, N-[2-(1-methyl-2-pyrrolidinyl)-ethyl]-1-methyl-4-imidazolesulfonamide hydrochloride], for which the “TI of ischemic treated muscle” value in data set [1] (setting [5]) turned out to be 2.34. Further, the change in vivo at 6 mg/kg in data set [1] (setting [4]) turned out to be 19.4%. Besides, the inhibition in vivo at 20 mg/kg in data set [2] (20 mg/kg p.o.) was determined as 24%.

For the compound `COCCN(CCCNS(=O)(=O)c1cn(C)cn1)CCOC` [Example 23], the “TI of ischemic treated muscle” value in data set [1] (setting [5]) is reported as 2.18. In data set [1] (setting [4]), the change in vivo at 6 mg/kg is 23.1%.

As for `Cl.Cn1cnc(S(=O)(=O)NCCCN2CCN(Cc3ccccc3)CC2)c1` [Example 26, N-[3-(4-benzyl-1-piperazinyl)-propyl]-1-methyl-4-imidazolesulfonamide hydrochloride], in data set [1] (setting [5]), the “TI of ischemic treated muscle” value worked out at 2.49. Also, the change in vivo at 6 mg/kg in data set [1] (setting [4]) was found to be 25.7%. Further, in data set [2], the inhibition in vivo at 10 mg/kg was found to be 24%.

For `CN(CCCNS(=O)(=O)c1cn(C)cn1)Cc1ccccc1` [Example 28, N-[3-(N-Benzyl-N-methylamino)-1-propyl]-1-methyl-4-imidazolesulfonamide hydrogenfumarate], in data set [1] (setting [5]), the “TI of ischemic treated muscle” value is given as 2.27. The change in vivo at 6 mg/kg in data set [1] (setting [4]) worked out at 14.6%.

Regarding `Cc1nc(S(=O)(=O)NCCCN2CCOCC2)cn1C.Cl` [Example 33, N-(3-Morpholinopropyl)-1,2-dimethyl-4-imidazolesulfonamide hydrochloride], in data set [1] (setting [5]), the “TI of ischemic treated muscle” value was determined as 2.30. In data set [1] (setting [4]), the change in vivo at 6 mg/kg turned out to be 12.2%. The inhibition in vivo at 10 mg/kg in data set [2] came out at 18%.

As to `CCn1cnc(S(=O)(=O)NCCCN2CCOCC2)c1` [Example 37, N-(3-Morpholinopropyl)-1-ethyl-4-imidazolesulfonamide hydrogenfumarate], the “TI of ischemic treated muscle” value in data set [1] (setting [5]) was 2.09. The change in vivo at 6 mg/kg in data set [1] (setting [4]) was -7.9%.

Take `Cn1cnc(S(=O)(=O)NC(CN2CCOCC2)CN2CCOCC2)c1` [Example 38, N-(1,3-Dimorpholino-2-propyl)-1-methyl-4-imidazolesulfonamide]: the “TI of ischemic treated muscle” value in data set [1] (setting [5]) turned out to be 2.18. Further, in data set [1] (setting [4]), the change in vivo at 6 mg/kg amounted to 10.1%. The inhibition in vivo at 10 mg/kg in data set [2] was determined as 21%.

Regarding `Cn1cnc(S(=O)(=O)Oc2ccc(N3CCN(S(=O)(=O)c4ncn(C)c4Cl)CC3)cc2)c1Cl` [Example 41, 1-(1-Methyl-5-chloro-4-imidazolesulfonyl)4-[4-(1-methyl-5-chloro-4-imidazolesulfonyloxy)phenyl]piperazine], the “TI of ischemic treated muscle” value in data set [1] (setting [5]) was 2.18. In data set [1] (setting [4]), the change in vivo at 6 mg/kg was 18.5%.

With `Cn1cnc(S(=O)(=O)N2CCSCC2)c1` [Example 42, 4-(1-Methyl-4-imidazolesulfonyl)tetrahydro-4H-1,4-thiazine], in data set [1] (setting [5]), the “TI of ischemic treated muscle” value is recorded as 2.84. The change in vivo at 6 mg/kg in data set [1] (setting [4]) was determined as 24.6%.

On to `Cn1cnc(S(=O)(=O)NCCc2ccc(O)cc2)c1` [Example 45, N-(4-hydroxyphenethyl)-1-methyl-4-imidazolesulfonamide], for which the “TI of ischemic treated muscle” value in data set [1] (setting [5]) was 2.14. The change in vivo at 6 mg/kg in data set [1] (setting [4]) was 16.3%.

For `Cn1cnc(S(=O)(=O)NCCCCCCNS(=O)(=O)c2ncn(C)c2Cl)c1Cl` [Example 47, 1,6-bis(5-chloro-1-methyl-4-imidazolesulfonamido)hexane], the “TI of ischemic treated muscle” value in data set [1] (setting [5]) came out at 2.46. Moreover, the change in vivo at 6 mg/kg in data set [1] (setting [4]) is 6%.

Regarding `Cn1cnc(S(=O)(=O)NCCc2ccc(OCC(=O)O)cc2)c1` [Example 51, 4-[2-(1-Methyl-4-imidazolesulfonyl)aminoethyl]phenoxyacetic acid], the “TI of ischemic treated muscle” value in data set [1] (setting [5]) was found to be 2.92. Besides, in data set [1] (setting [4]), the change in vivo at 6 mg/kg amounted to 23.7%.

Take `Cn1cnc(S(=O)(=O)NCCc2ccc(OCC(=O)O)cc2)c1Cl` [Example 52, 4-[2-(5-Chloro-1-methyl-4-imidazolesulfonyl)aminoethyl]phenoxyacetic acid]: the “TI of ischemic treated muscle” value in data set [1] (setting [5]) is recorded as 2.16. The change in vivo at 6 mg/kg in data set [1] (setting [4]) is 17.4%.

Take `Cn1cnc(S(=O)(=O)NCCC[N+]2(C)CCOCC2)c1` [Example 56, 4-Methyl-4-[3-(1-methyl-4-imidazolesulfamoyl)-1-propyl]morpholinium iodide]: the inhibition in vivo at 10 mg/kg in data set [2] stood at 24%. Moreover, the LD50 at 168 h in data set [3] was > 100 mg/kg.

`Cn1cnc(S(=O)(=O)N2CCS(=O)(=O)CC2)c1` [Example 57, 4-(1-Methyl-4-imidazolesulfonyl)tetrahydro-4H-1,4-thiazine-1,1-dioxide]: the inhibition in vivo at 10 mg/kg in data set [2] stood at 19%.

Take `CCOC(=O)COc1ccc(N2CCN(S(=O)(=O)c3ncn(C)c3Cl)CC2)cc1` [Example 58, Ethyl 4-[4-(5-chloro-1-methyl-4-imidazolesulfonyl)piperazinyl]phenoxyacetate]: the “TI of ischemic treated muscle” value in data set [1] (setting [5]) is listed as 2.07. Moreover, the change in vivo at 6 mg/kg in data set [1] (setting [4]) was -1.9%.

Take `CNCCCNS(=O)(=O)c1cn(C)cn1.Cl` [Example 62, N-(3-Methylamino-1-propyl)-1-methyl-4-imidazolesulfonamide hydrochloride]: the “TI of ischemic treated muscle” value in data set [1] (setting [5]) was 2.5. In addition, the change in vivo at 6 mg/kg in data set [1] (setting [4]) worked out at 27.8%.
